# Key:
# Assay type in all cases: in vivo, human
# [1] = test system: serum cytokines (TNF-α, IFN-α, IL-1RA, IL-6, NPT, 2′5′ AS); assay: Single dose cervical application study: PD response by serum analysis for cytokines
# Protocol: (§1) This was a single dose, randomized, double-blind, placebo controlled dose escalation study which evaluated five doses of imiquimod. 50, 100, 150, 200 and 250 mg of imiquimod in a cream formulation were applied to the cervix for eight hours. Each dose group was composed of 8 subjects (6 active and 2 placebo), with two subjects treated as dose leaders, and the remaining six subjects were treated after an acceptable response by the dose leaders. Safety was assessed by adverse events (AE's), laboratory tests, and colposcopy with photodocumentation of the cervix at pre-dose and 24 hours post-dose, and 48 hours post-dose if required. Systemic exposure (PK) was determined by measuring imiquimod and metabolites through 48 hours post-dose and the PD response was determined by serum analysis for the cytokines: tumor necrosis factor-α (TNF-α), interferon-α (IFN-α), interleukin-1 receptor […] (IL-1RA), interleukin-6 (IL-6), neopterin (NPT) and 2′5′ oligoadenlyate synthetase (2′5′ AS) during dosing and selected times during the 48 hours post-dose. Statistical tests to evaluate AE's and demographics, laboratory tests, vital signs and ECG's were Fisher's Exact, Wilcoxon Rank-Sum and Kruskall Wallis Tests respectively. Cytokine changes between dose groups were compared using Wilcoxon Rank-Sum and changes from baseline were evaluated using Spearman Rank Correlation.
# cervix = assay: Single dose cervical application study: safety (adverse events, pelvic and colposcopic examination)
# Protocol: as §1
# [2] = Single dose cervical application study: systemic exposure (PK) of imiquimod in serum
# Protocol: as §1
# [3] = serum, 150 mg, 200 mg and 250 mg groups
# [4] = single doses up to 250 mg applied to the cervix for 8 hours, healthy volunteers
smiles,measurement,setting,value
"CC(C)Cn1cnc2c(N)nc3ccccc3c21 [imiquimod, 1-(2-methylpropyl)-1H-imidazo[4,5-c] quinolin-4-amine]",systemic concentration of certain cytokines,[1]; cervical application of a dose ≧150 mg,increases
same,2′5′ AS change from baseline,[1]; [3],Significant changes from baseline
same,IL-1RA change from baseline,[1]; [3],Significant changes from baseline
same,NPT (neopterin) change from baseline,[1]; [3],Significant changes from baseline
same,IFN change from baseline,"[1]; serum, 250 mg group",Significant changes from baseline
same,IL-6 change from baseline,"[1]; serum, 250 mg group",Significant changes from baseline
same,time to resolution of cervical reactions,cervix; 250 mg dose group,≤ 48 h
same,subjects experiencing cervical changes of minor small vesicles or smaller ulcer,"cervix; 250 mg dose group, pelvic and colposcopic examination",2 of 6
same,overall safety,cervix; [4],safe
same,serum levels of imiquimod,"[2]; single dose 50-250 mg imiquimod cream (Formulation A) applied to the cervix for 8 hours, through 48 hours post-dose, quantifiable >5 ng/ml",≤ 5 ng/mL
same,systemic exposure,[2]; [4],minimal systemic exposure
